{"source": "patent US4564614A", "about": "“Antiinflammatory methods” (priority 1985, dated 1986)", "key": {"gastric ulcers": {"system": "gastric ulcers", "conditions": "subcutaneous injection; cited from earlier work"}, "ulcers": {"system": "ulcers", "conditions": "1.1 mg/kg, injection; cited from earlier work"}, "[1]": {"system": "piroxicam-induced gastric lesions", "assay": "animal or person", "format": "in vivo, rat (CD strain, Sprague-Dawley)", "conditions": "for reduction of piroxicam-induced gastric lesions: healthy fasted rat; for Lesions/Rat (mean +/- SE): with 120 mg/kg ethanolamine salt of piroxicam; for Significance p < 0.05: Student's two-tailed t test vs piroxicam-only control", "experimental": "Adult male \"specific pathogen free\" rats weighing 140-160 grams of the CD strain (Sprague-Dawley) were obtained from Charles River Breeding Laboratories (Kingston, N.Y.) The animals were acclimated for approximately one week and tested when they reached a body weight of 200-225 grams. The rats were fasted for 16 hours and randomized into groups consisting of 8 to 20 animals which were normalized with regard to their average body weight.\nGastric ulcers were induced in the animals by orally dosing them with a single 120 mg/kg dose of piroxicam (ethanolamine salt) in 2 ml. of aqueous 0.1% methylcellulose (pH=6.8). Those animals receiving a second medicinal agent separately received the second drug in an additional 2 ml. of the same medium at about the same time. Six and one-half hours later, the animals were sacrificed by cervical dislocation and autopsied. The stomachs were surgically removed, dissected along the greater curvature and rinsed with cold water. The stomachs were individually scored for both linear and punctuate lesions. The total number of lesions was used for scoring purposes. The data obtained from each group of rats was analyzed after calculation of the mean number ± the standard error of total gastric lesions. The values obtained were also compared to the controls which received only piroxicam by the two-tailed Student's T-Test for non-paired data."}, "[2]": {"conditions": "50-150 mg/day for 3 months, rheumatoid arthritis patients; cited from earlier work"}, "rheumatoid arthritis": {"system": "rheumatoid arthritis", "conditions": "50-150 mg/day for 3 months, rheumatoid arthritis patients, most taking aspirin; cited from earlier work"}}, "data": [{"smiles": "Cc1ncc(CO)c(CO)c1O", "note": "[Pyridoxine, pyridoxine]", "values": [{"measurement": "healing of gastric ulcers", "setting": "gastric ulcers", "result": "not promote the healing"}, {"measurement": "pain of gastric ulcers", "setting": "gastric ulcers", "result": "alleviate the pain"}, {"measurement": "frequency of ulcers", "setting": "ulcers", "result": "reduce the frequency of ulcers"}]}, {"smiles": "CC(C)(C)NCC(O)c1ccc(O)c(CO)n1", "note": "(centres unmarked) [pirbuterol]", "values": [{"measurement": "reduction of piroxicam-induced gastric lesions", "setting": "[1]", "result": "significantly reduce"}]}, {"smiles": "c1ccc(CCNc2nc(-c3ccccc3)cs2)cc1", "note": "[fanetizole]", "values": [{"measurement": "reduction of piroxicam-induced gastric lesions", "setting": "[1]", "result": "significantly reduce"}]}, {"smiles": "CN(C)CCC=C1c2ccccc2COc2ccccc21", "note": "[doxepin]", "values": [{"measurement": "reduction of piroxicam-induced gastric lesions", "setting": "[1]", "result": "significantly reduce"}]}, {"smiles": "CC(=O)Nc1ccc(O)cc1", "note": "[acetaminophen]", "values": [{"measurement": "reduction of piroxicam-induced gastric lesions", "setting": "[1]", "result": "significantly reduce"}]}, {"smiles": "Cc1ncc(CO)c(CO)c1O.Cl", "note": "[Pyridoxine Hydrochloride, pyridoxine hydrochloride]", "values": [{"measurement": "increase in plasma levels of pyridoxal phosphate", "setting": "[2]", "result": "2-5 fold"}, {"measurement": "clinical improvements in the disease", "setting": "rheumatoid arthritis", "result": "no clinical improvements"}, {"measurement": "Lesions/Rat (mean +/- SE)", "setting": "[1]; 3.3 mg/kg oral, 10 rats", "result": "7.0 (1.1)"}, {"measurement": "Lesions/Rat (mean +/- SE)", "setting": "[1]; 10 mg/kg oral, 30 rats", "result": "4.2 (1.2)"}, {"measurement": "Lesions/Rat (mean +/- SE)", "setting": "[1]; 33 mg/kg oral, 50 rats", "result": "3.9 (1.1)"}, {"measurement": "Significance p < 0.05", "setting": "[1]; 33 mg/kg oral", "result": "+ (p < 0.05)"}, {"measurement": "Lesions/Rat (mean +/- SE)", "setting": "[1]; 100 mg/kg oral, 20 rats", "result": "2.7 (1.1)"}, {"measurement": "Significance p < 0.05", "setting": "[1]; 100 mg/kg oral", "result": "+ (p < 0.05)"}, {"measurement": "ED50", "setting": "[1]; Rattus norvegicus, 6.5 h, oral, linear regression analysis, 120 mg/kg ethanolamine salt of piroxicam, read-out: ED50 (dose required to inhibit 50% of control gastric lesion)", "result": 33, "unit": "mg/kg"}]}, {"smiles": "CN1C(=O)CN=C(c2ccccc2)c2cc(Cl)ccc21", "note": "[diazepam]", "values": [{"measurement": "reduction of piroxicam-induced gastric lesions", "setting": "[1]", "result": "significantly reduce"}]}]}
